Experimental data as given in patent US9885044B2, “Polynucleotides and methods for inhibiting cancer cells” (Chang Gung Memorial Hospital, Linkou, priority 2015, dated 2018).

Tests used:
Puf-A RNA = assay: Puf-A knockdown by shRNA lentivirus vectors, RT-PCR and Q-PCR; assay type: cell-based, human; settings: for knockdown efficiency on Puf-A expression compared to control shRNA: HCT116 and H1299 cells, Q-PCR (FIG. 6D); for expression level of Puf-A RNA compared to control shRNA: p53-proficient (p53+/+ HCT116) and p53-deficient (p53−/− HCT116, p53−/− H1299) cells, GAPDH internal control
Method: FIG. 6A show the nucleotide sequence of human Puf-A gene (SEQ ID NO:1). […] FIG. 6C and FIG. 6D illustrate the Puf-A knockdown efficiency of control shRNA, shPuf-A-1 and shPuf-A-2 in colorectal cancer cells (HCT116) and lung cancer cells (H1299), determined by RT-PCR and Q-PCR analyses.
The effect of the shRNAs constructs in FIG. 6B on Puf-A expression was evaluated using p53-proficient (p53^+/+ HCT116) and p53-deficient (p53^−/− HCT116 and p53^−/− H1299). The cells were transduced with control shRNA, shPuf-A-1 and shPuf-A-2 lentivirus vectors and Puf-A expression was determined by […] and Q-PCR. […] The knockdown efficiencies of shPuf-A-1 and shPuf-A-2 on Puf-A expression were approximately 90% and 75%, respectively, compare to the control shRNA (FIG. 6D).

Puf-A proteins = assay: Puf-A protein expression after shPuf-A transduction of cancer cell lines (Western blot); assay type: cell-based; settings: A549, H460, H1299, CL1-5, HCT116, MB231, U87, LN229, T98 cells
Text: (§1) FIG. 7A is an assembly of images showing the effect of control shRNA, shPuf-A-1 and Puf-A-2 on Puf-A expression and cleaved form of PARP1, by transducing control shRNA, shPuf-A-1 and Puf-A-2 into the following p53-deficient and p53-proficient cell lines: A549, H460, U87, HCT116, H1299, CL1-5, MB231, LN229 and T98. FIG. 7B is a series of flow cytometry (FACS) images, illustrating the cell-cycle of Puf-A depleted (shPuf-A transduced) p53 proficient (p53 wild type) and p53 deficient (p53 defective) cancer cell lines. FIG. 7C is a series of Western blot images showing the effect shPuf-A-1 transduction on the expression of Puf-A, LC3 (marker for autophagosome), LAMP2 (marker for lysosome) and p62 (an autophagy substrate) in p53^+/+HCT116, p53^−/−HCT116, and p53^−/−H1299 cancer cell lines. FIG. 7D is a Western Blot image illustrating the effect of suppressing p53 and Puf-A in p53-proficient cells (H460). FIG. 7E is a series of immunofluorescence images illustrating the effect of silencing Puf-A, by shPuf-A-1 transduction, on LC3 (green), Lamp1 (red) and DAPI (blue) expression in p53 proficient (p53^+/+) HCT116, P53 deficient (p53^−/−) HCT116 and H1299 cancer cells. […]
The biological function of Puf-A on cancer cells was assessed, using lung cancer cells (A549, H460, H1299 and CL1-5); colorectal cancer cells (HCT116); breast cancer cells (MB231) and glioblastoma cells (U87, LN229 and T98).

LC3-II, LAMP2, p62 = assay: Autophagy markers after shPuf-A transduction (Western blot); assay type: cell-based; settings: p53-proficient cells (p53+/+ HCT116)
Text: as §1, with “cells. FIG. 7F is a series of graphs illustrating reduced proliferation rate of p53^−/− HCT116 and H1299 cells after shPuf-A-1 and shPuf-A-2 transduction compared to control shRNA transduction.” for “cells.”

LC3-II, LAMP1 = assay: Immunofluorescence staining of LC3-II and LAMP1 after shPuf-A-1 transduction; assay type: cell-based
Text: (§2) FIG. 7A is an assembly of images showing the effect of control shRNA, shPuf-A-1 and Puf-A-2 on Puf-A expression and cleaved form of PARP1, by transducing control shRNA, shPuf-A-1 and Puf-A-2 into the following p53-deficient and p53-proficient cell lines: A549, H460, U87, HCT116, H1299, CL1-5, MB231, LN229 and T98. FIG. 7B is a series of flow cytometry (FACS) images, illustrating the cell-cycle of Puf-A depleted (shPuf-A transduced) p53 proficient (p53 wild type) and p53 deficient (p53 defective) cancer cell lines. FIG. 7C is a series of Western blot images showing the effect shPuf-A-1 transduction on the expression of Puf-A, LC3 (marker for autophagosome), LAMP2 (marker for lysosome) and p62 (an autophagy substrate) in p53^+/+HCT116, p53^−/−HCT116, and p53^−/−H1299 cancer cell lines. FIG. 7D is a Western Blot image illustrating the effect of suppressing p53 and Puf-A in p53-proficient cells (H460). FIG. 7E is a series of immunofluorescence images illustrating the effect of silencing Puf-A, by shPuf-A-1 transduction, on LC3 (green), Lamp1 (red) and DAPI (blue) expression in p53 proficient (p53^+/+) HCT116, P53 deficient (p53^−/−) HCT116 and H1299 cancer cells. FIG. 7F is a series of graphs illustrating reduced proliferation rate of p53^−/− HCT116 and H1299 cells after shPuf-A-1 and shPuf-A-2 transduction compared to control shRNA transduction.

[1] = system: p53-deficient and P53-proficient cancer cells; assay: Proliferation rate of cancer cells after shPuf-A transduction; assay type: cell-based; settings: p53-deficient and P53-proficient cancer cells (FIG. 7F)
Text: as §2, with “transduction. […]” for “transduction.”

p53 and p21 = p53 and p21 protein/RNA expression in p53 proficient cancer cells after Puf-A suppression; assay type: cell-based; settings: A549, H460 or HCT116 p53 proficient cells
Text: FIG. 8A is a series of Western blot, RT-PCR and Q-PCR images, illustrating shPuf-A1 and shPuf-A2 transduction increases the expression of p53 and p21 and reduces transcripts of PUF-A in the following p53-proficient (p53^+/+) cancer cell lines: A549, H460, and HCT116. FIG. 8B is a series of immunostaining images illustrating the expression of p53 (red) and DAPI (blue, internal control) in p53-proficient (p53^+/+) cancer cell lines A549, H460 and HCT116 cells and P53 deficient (p53^−/−) HCT116 cancer cells after control shRNA and shPuf-A-1 transduction. FIG. 8C is a series of bar graphs illustrating the FACS analyzed cell-cycles of Puf-A depleted cancer cells, A549, H460 and HCT116, with different p53 genotypes.
The effect of Puf-A suppression on the expression level of p53 and p21 protein/RNA in p53 proficient cancer cells was examined, by infecting A549, H460 or HCT116 cancer cells with shPuf-A-1, shPuf-A-2 or control shRNA viral vectors. […] Cell-cycle progression of the same cancer cell lines was analyzed by FACS.

[2] = system: adenoma-bearing LSL-Kras^G12D/p53^flox mice; assay: In vivo evaluation of Puf-A suppression in tumourigenesis (intranasal lentiviral shRNA); settings: lentiviral vector intranasally twice a week for two weeks; sacrificed 6 weeks after Kras^G12D activation and p53 deletion
Text: FIG. 5A schematically illustrates the in vivo study design of Puf-A shRNA delivery to knock down Puf-A. FIG. 5B is an assembly of microscopic images illustrating the number of tumor foci in mice administered with of control shRNA or Puf-A shRNA. FIG. 5C is a series of bar graphs illustrating the counted numbers of tumor foci (>250 μm) in mice with adenocarcinoma (left bar graph) and adenoma (right bar graph), after the administration of control or Puf-A-2 shRNA.
An in vivo evaluation of Puf-A suppression in tumourigenesis was performed using LSL-Kras^G12D1p53^flox mice.
FIG. 5A schematically illustrates the study design. LSL-Kras^G12D/p53^flox mice developed adenoma after 2 weeks of Kras^G12D activation and p53 deletion. Lentiviral vector, expressing shPuf-A-2 (a Puf-A shRNA) or control shRNA, was intranasally delivered to adenoma-bearing LSL-Kras^G12D/p53^flox mice twice a week for two weeks. The mice were sacrificed 6 weeks after Kras^G12D activation and p53 deletion.

shPuf-A-1: novel short hairpin RNA targeting Puf-A, encoded by SEQ ID NO:2, delivered by lentivirus vector (DNA CCGGGCCTAGCATAGTAAATGACAACTCGAGTTGTCATTTACTATGCTAGGCTTTTTTG)
knockdown efficiency on Puf-A expression compared to control shRNA (Puf-A RNA): approximately 90%
expression level of Puf-A RNA compared to control shRNA (Puf-A RNA): significantly reduced
expression level of Puf-A proteins compared to control shRNA (Puf-A proteins): significantly reduced
level of LC3-II expression (LC3-II, LAMP2, p62): slight increase
expression and co-localization of LC3-II and LAMP1 (LC3-II, LAMP1; p53-deficient cancer cells): increase expression and co-localization
LAMP1 around the nuclei (LC3-II, LAMP1; p53-proficient cancer cells): slight increase
proliferation rate compared to control shRNA virus [1]: reduced
expression level of p21 protein or RNA compared to control shRNA (p53 and p21): significantly increased
expression level of p53 protein or RNA compared to control shRNA (p53 and p21): significantly increased

shPuf-A-2: novel short hairpin RNA targeting Puf-A, encoded by SEQ ID NO:3, delivered by lentivirus vector (DNA CCGGCGTGTGATCCAGTGTTACATTCTCGAGAATGTAACACTGGATCACACGTTTTTG)
reduction of number of adenocarcinoma focus (>250 μm) vs control shRNA vector [2]: 15.4 fold
reduction of number of adenoma focus (>250 μm) vs control shRNA vector [2]: 2.6 fold
knockdown efficiency on Puf-A expression compared to control shRNA (Puf-A RNA): ~75%
expression level of Puf-A RNA compared to control shRNA (Puf-A RNA): significantly reduced
expression level of Puf-A proteins compared to control shRNA (Puf-A proteins): significantly reduced
level of LC3-II expression (LC3-II, LAMP2, p62): slight increase
proliferation rate compared to control shRNA virus [1]: reduced
expression level of p21 protein or RNA compared to control shRNA (p53 and p21): significantly increased
expression level of p53 protein or RNA compared to control shRNA (p53 and p21): significantly increased
